Patent publication US20080213364A1, “Formulations of Pyridoxal-5'-Phosphate and Methods of Preparation” (Medicure International, Inc., priority 2004, published 2008)

Legend:
[1] = Single-dose pharmacokinetics study, plasma pyridoxal 5′-phosphate; conditions: both, human, in vivo
Procedure: (§1) Pharmacokinetics Study—The protocol was designed to first study a single dose of pyridoxal 5′-phosphate at three different dose levels: […] of body weight. Following evaluation of safety and tolerance, the highest tolerated dose was administered once daily for seven consecutive days. The product was manufactured as enteric-coated tablets each containing 250 mg of pyridoxal 5′-phosphate. The dose was calculated based on the body weight and rounded to the nearest 250 mg.
During the single-dose phase, blood samples were collected prior to dosing and 1, 2, 3, 4, 5, 6, 7, 8, 12, 16 and 24 hours following drug administration. During the multi-dose phase, blood samples were drawn each morning prior to dosing and 2 hours post-dose. Following the last dose on day 7, blood samples were drawn after 1, 2, 3, 4, 5, 6, 7, 8, 12, 16 and 24 hours.
Plasma samples were separated and divided into two approximately equal aliquots and stored at −70±10° C. pending shipment (over dry ice) to the analytical laboratory.
(§2) Pharmacokinetic Analysis—The following pharmacokinetic parameters were calculated: area under the curve from time zero to the last measurable concentration (AUC-T), area under the curve from time zero to infinity (AUC-inf), maximal plasma concentration (Cmax), time of maximal plasma concentration (Tmax), elimination constant (Kel), half-life (T½), mean residence time (MRT), clearance (Cl) and volume of distribution (Vd).
Whenever possible, the area under the plasma concentration-time curve was calculated from time zero to the last measurable concentration (AUC T) using the linear trapezoidal method. AUC-T is expressed as ng·h/ml. AUC-T was also normalized for body weight and expressed as ng·h/ml/kg.
The area under the curve from time zero to infinity (AUC-inf) was calculated as the sum of AUC-T+Clast/Kel where Clast represents the last measurable concentration and Kel the elimination rate constant calculated by linear least squares regression using the data points that best represent the terminal linear phase. AUC-inf is expressed as ng·h/ml. AUC-inf was also normalized for body weight and expressed as ng·h/mg/kg.
Cmax is expressed in ng/ml. Cmax was also normalized for body weight and expressed as ng/ml/kg. […]
The oral clearance was evaluated by dividing the dose (mg/kg) by AUC-inf (ng·h/mL). Clearance is expressed as L/h/kg. The actual clearance was also calculated without normalization for body weight and expressed as L/h.
The volume of distribution is actually the Vdarea calculated by dividing the clearance (L/h/kg) by Kel (h-1). Vd is expressed as L/kg and is not corrected for absolute bioavailability. The actual volume of distribution was also calculated without normalization for body weight and expressed in liters. […]

[2] = assay type: in vivo; conditions: 30 mg/kg daily as enteric coated tablets, Day 1 vs Day 7 parameters
Procedure: as §1
During the single-dose phase, blood samples were collected prior to dosing and 1, 2, 3, 4, 5, 6, 7, 8, 12, 16 and 24 hours following drug administration. […]
as §2
Subjects randomized to the 15 mg/kg group actually received a dose of 14.58±1.11 mg/kg. […] During the multi-dose phase of the study, the number of tablets was calculated prior to the first drug administration and remained constant throughout the duration of the study, regardless of any change in body weight. […]

Cc1ncc(COP(=O)(O)O)c(C=O)c1O [pyridoxal 5′-phosphate]
mean maximal plasma concentration (mean curve, FIG. 3) ([1]; 15 mg/kg): 1870 ± 2652 ng/mL
time at which mean maximal plasma concentration was reached ([1]; 15 mg/kg): 6 h
mean maximal plasma concentration (mean curve, FIG. 3) ([1]; 60 mg/kg): 3922 ± 5457 ng/mL
time at which mean maximal plasma concentration was reached ([1]; 60 mg/kg): 4 h
accumulation upon multiple dosing [2]: does not accumulate upon multiple dosing
